Results from paper PMC10780413, “Flavonoid Metabolites in Serum and Urine after the Ingestion of Selected Tropical Fruits” (Nutrients, 2024).
Like-named read-outs stand apart in the source and are kept apart here. Blank lines part the entries; values can stand above or below the compound they belong to.

How the values were obtained:
xanthine oxidase = tested on: xanthine oxidase; set-up: method as in PMID 11118813; conditions: cited from earlier work
[1] = Serum concentration of flavonoid metabolites after ingestion of 200 g fresh fruit (LC-MS/MS after enzyme hydrolysis); type: in vivo, human; conditions: despite presence in the selected fruits
Excerpt: Three groups of six healthy subjects (male and female) between 20 and 30 years of age, with a body mass index between 18 and 25, were recruited for this study. Each group of participant received one kind of fruit. They were not alcohol drinkers, smokers, drug users, nor pregnant. They had not taken any medications for at least one month prior to the experiment. All participants underwent health checks for their hematological and biochemical profiles. There was no clinical presentation of gastrointestinal diseases (peptic ulcer), kidney diseases, liver diseases or jaundice, heart diseases, asthma, or diabetes mellitus. Levels of blood glucose before and 4 h after fruit ingestion were monitored in all subjects. […]
Participants maintained a low-flavonoid diet (e.g., diet without vegetables, fruits, or chocolate) for two days and fasted for 8 h before the study to avoid any contribution from other foods containing flavonoids. […] The volume of urine sample was measured and then centrifuged at 233× g to remove the precipitate. […]
The conjugated metabolites of flavonoids, glucuronic acid, and sulfate conjugates were determined in the serum and urine after hydrolyzing with β-glucuronidase (EC 3.2.1.31, bovine liver type B-I, Sigma, St Louis, MO, USA) and aryl sulfatase (EC 3.1.6.1, Merk, Darmstadt, Germany), respectively, at 37 °C for 16 h. […]

[2] = set-up: method as in PMID 14709621; conditions: in vitro study; cited from earlier work
[3] = tested on: LPS-induced pulmonary injury; set-up: method as in PMID 37335159; conditions: in vitro and in vivo models; cited from earlier work
[4] = set-up: method as in PMID 25212140; conditions: after ingestion of rooibos tea; cited from earlier work
[5] = Bioavailability estimated from total urinary excretion and flavonoid content in fruits; type: in vivo; conditions: human, 200 g, 200 g edible part, fruit content from ref 10, read-out: Estimated bioavailability (total urinary amount as % of content in fruit)
Description: Hollman et al. reported the bioavailability of quercetin from apples and pure quercetin-3-rutinose was only 30% compared to onions. Here, we assumed the flavonoids recovering in urine had passed the blood compartment. […] In the two-hundred grams of edible part, guava and pineapple contained about 6900 μg and 850 μg of quercetin, respectively. The total amount of urinary quercetin accounted for 13% and 80% of the quercetin content in the respective fruits. […] It should be noted that, the bioavailability of flavonoids may be underestimated because the biliary excretion of flavonoids was not taken into account. Moreover, the urinary methyl-conjugated favonoids were not quantified in this study.

[6] = plasma; cited from earlier work
[7] = type: in vivo, human; conditions: after guava, pineapple, pomelo
Description: Participants maintained a low-flavonoid diet (e.g., diet without vegetables, fruits, or chocolate) for two days and fasted for 8 h before the study to avoid any contribution from other foods containing flavonoids. Servings of fresh fruits of 200 g were given to the participants followed by 200 mL water. Beverages containing alcohol and caffeine were prohibited during the test period. Venous blood samples were collected before and 2, 4, 6, and 8 h after fruit ingestion. Serum was immediately prepared using centrifugation 233× g at 4 °C for 15 min, 200 mM ascorbic acid was added, and the samples were then stored at −20 °C until the analysis (within two weeks). Urine samples were collected at intervals of 0–4, 4–6, 6–8, 8–12, and 12–24 h in plastic bottles containing 70 mg of ascorbic acid per 100 mL of urine. The volume of urine sample was measured and then centrifuged at 233× g to remove the precipitate. […]
Flavonoid analysis was measured by a modified method of Biessaga [15] and Mullen et al. [16]. […]

[8] = set-up: method as in PMID 11361045; conditions: cited from earlier work
[9] = cited from earlier work

Detection in serum or urine after fruit ingestion [1]: did not detect
Structure (SMILES): COc1ccc([C@@H]2CC(=O)c3c(O)cc(O)cc3O2)cc1O [hesperetin]

Detection in serum or urine after fruit ingestion [1]: did not detect
Structure (SMILES): O=c1cc(-c2ccc(O)cc2)oc2cc(O)cc(O)c12 [apigenin]
Phase I metabolism, major metabolite [2]: forms luteolin as a major metabolite

bioavailability ([5]; urine, oral, from guava): 5% | bioavailability ([5]; urine, oral, from pomelo): 5%
Structure (SMILES): O=c1cc(-c2ccc(O)c(O)c2)oc2cc(O)cc(O)c12 [Luteolin, luteolin]
Tmax [4]: 1.5 to 3 h

bioavailability ([5]; urine, oral, from pineapple): 10% | bioavailability ([5]; urine, oral, from pomelo): 1% | Conjugated forms recovered in urine [7]: found in both conjugated metabolites
Structure (SMILES): O=c1c(O)c(-c2ccc(O)cc2)oc2cc(O)cc(O)c12 [Kaempferol, kaempferol]
Share that is glucuronide in the 3′-position [6]: 20–40%

bioavailability ([5]; urine, oral, from guava): 13% | bioavailability ([5]; urine, oral, from pineapple): 80% | Conjugated forms recovered in urine [7]: found in both conjugated metabolites
Structure (SMILES): O=c1c(O)c(-c2ccc(O)c(O)c2)oc2cc(O)cc(O)c12 [Quercetin, quercetin]
Share that is glucuronide in the 3′-position [6]: 20–40% | Tmax of quercetin ([8]; after ingesting buckwheat tea): 4.3 h | Tmax of quercetin ([8]; after ingesting quercetin-3-rutioside): 6.9 h | Tmax of quercetin ([8]; after single ingestion of onion): 0.7 h | Tmax of quercetin ([8]; after single ingestion of quercetin-4’-glucoside): 0.7 h | Bioavailability of quercetin compared to onions ([9]; from apples): 30%

Continued, compound first:

Structure (SMILES): O=C(O)[C@H]1O[C@@H](Oc2ccc(-c3oc4cc(O)cc(O)c4c(=O)c3O)cc2O)[C@H](O)[C@@H](O)[C@@H]1O [4′-quercetin glucuronide]
Inhibitory effect on xanthine oxidase (xanthine oxidase): potent inhibitory effect

Structure (SMILES): O=C(O)[C@H]1O[C@@H](Oc2cc(-c3oc4cc(O)cc(O)c4c(=O)c3O)ccc2O)[C@H](O)[C@@H](O)[C@@H]1O [3′-quercetin glucuronide]
Inhibitory effect on xanthine oxidase (xanthine oxidase): potent inhibitory effect

Structure (SMILES): O=C(O)[C@H]1O[C@@H](Oc2c(-c3ccc(O)c(O)c3)oc3cc(O)cc(O)c3c2=O)[C@H](O)[C@@H](O)[C@@H]1O [quercetin-3-glucuronide]
Activity in LPS-induced pulmonary injury [3]: exerted antioxidant and anti-inflammatory activity | Inhibitory effect on xanthine oxidase (xanthine oxidase): not active

Structure (SMILES): C[C@@H]1O[C@@H](OC[C@H]2O[C@@H](Oc3c(-c4ccc(O)c(O)c4)oc4cc(O)cc(O)c4c3=O)[C@H](O)[C@@H](O)[C@@H]2O)[C@H](O)[C@H](O)[C@H]1O [quercetin-3-rutinose, reference compound]
Bioavailability of quercetin compared to onions ([9]; in vivo): 30%

Structure (SMILES): O=c1c(O)c(-c2cc(O)c(O)c(O)c2)oc2cc(O)cc(O)c12 [Myricetin, myricetin]
Share that is glucuronide in the 3′-position [6]: 20–40% | bioavailability ([5]; in vivo, from guava): 5% | bioavailability ([5]; in vivo, from pineapple): 10% | Conjugated forms recovered in urine [7]: only detected in sulfate form
